Read-outs that look alike come from different tables or passages of the source.
Columns and labels:
Type in all cases: cell-based, human
HBEC30KT = test: Cell viability (ATP, Cell Titer Glo, 4 days), HBEC30KT; conditions: Homo sapiens
Protocol: (§1) FIG. 6A. […] Cell viability is plotted vs. compound concentration. Compound was added to cells plated at 15% confluence in 96-well plates in RPMI-1640 media supplemented with 5% Fetal Bovine Serum and 2 mM L-Glutamine. After 4 days of incubation, ATP levels were measured using Cell Titer Glo (Promega). Data are presented as the average of 2 replicates ±SEM.
(§2) Selectivity may be measured by the half maximal inhibitory concentration (IC50), which, as used herein, is a measure of the effectiveness of a compound in killing cells. This quantitative measure indicates how much of a particular compound is needed to kill a particular cell population by half (e.g., as indicated by the amount of ATP). […] The IC50 can be determined by constructing a dose-response curve. The lower the IC50, the higher the potency, and the greater the difference between IC50 values for different cell lines (e.g., sensitive lines vs. insensitive lines, and sensitive lines vs. normal lines) the greater the selectivity. […]

H2122 = test: Cell viability dose-response, H2122; conditions: Homo sapiens
Procedure, shortened: (§3)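 Cells plated at 15% confluence in RPMI-1640 with 5% FBS and 2 mM L-glutamine, treated with compound in a 12-point, 3-fold dilution series from 50 micromolar, in duplicate. ATP measured by Cell Titer Glo after 4 days; IC50 taken from the dose-response curve.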

H1819 = test: Cell viability dose-response, H1819; conditions: Homo sapiens
Procedure, shortened: as §3

H2009 = test: Cell viability dose-response, H2009; conditions: Homo sapiens, NCI-H2009; Tables 3 and 4; read-out: IC50 (uM) vs indicated non-small cell lung cancer cell line H2009
Procedure, shortened: (§4)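 Read-out is total cellular ATP, measured with CellTiter-Glo after four days of compound treatment. Cells start at 15% confluence in RPMI-1640 containing 5% FBS and 2 mM L-glutamine. Each point averages two replicates (±SEM).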

H2073 = test: Cell viability dose-response, H2073; conditions: Homo sapiens, NCI-H2073, Tables 3 and 4; read-out: IC50 (uM) vs indicated non-small cell lung cancer cell line H2073
Protocol: as §1, §2
With this information, we synthesized and tested a series of small molecules derived in conception from the oxalamide and chromone scaffold including N-acyl ureas, as shown in Tables 6-8. Each compound was tested in a 12-point dose-response study starting at 50 micromolar and decreasing in 3-fold increments to sub-nanomolar concentrations, in duplicate. Additionally, one or more additional cell line was tested in the same way.

HCC44 = test: Cell viability dose-response, HCC44; conditions: Homo sapiens, HCC44, Tables 3 and 4; read-out: IC50 (uM) vs indicated non-small cell lung cancer cell line HCC44
Procedure, shortened: as §4

[1] = 12-point dose-response starting at 50 micromolar, 3-fold increments, in duplicate, read-out: toxicity data, HBEC30KT
[2] = NCI-H2122, 12-point dose-response starting at 50 micromolar, 3-fold increments, in duplicate, read-out: toxicity data, H2122
[3] = NCI-H1819, 12-point dose-response starting at 50 micromolar, 3-fold increments, in duplicate, read-out: toxicity data, H1819
[4] = Tables 3 and 4, read-out: HBEC30KT IC50
[5] = NCI-H2122, Tables 3 and 4, read-out: IC50 (uM) vs indicated non-small cell lung cancer cell line H2122
[6] = NCI-H1819, Tables 3 and 4, read-out: IC50 (uM) vs indicated non-small cell lung cancer cell line H1819

| Compound | IC50 (HBEC30KT; [1]) [µM] | IC50 (H2122; [2]) [µM] | IC50 (H1819; [3]) [µM] | IC50 (H2009) [µM] | IC50 (HBEC30KT; [4]) [µM] | IC50 (H2122; [5]) [µM] | IC50 (H1819; [6]) [µM] | IC50 (H2073) [µM] | IC50 (HCC44) [µM] |
| --- | --- | --- | --- | --- | --- | --- | --- | --- | --- |
| COc1ccc(CCNC(=O)C(=O)Nc2ccc(C#N)cc2)cc1 [SW207017-1] | 49.5 | 0.712 | ≥ 49.5 |  |  |  |  |  |  |
| COc1ccc2nc(NC(=O)c3cccc(C)c3)sc2c1 [SW202744] |  |  |  | 24.8 | 36.2 | 1.16 | 53.5 | 25.6 |  |
| COc1ccc2nc(NS(=O)(=O)c3ccc([N+](=O)[O-])cc3)sc2c1 [SW166933] |  |  |  |  | 4950 | 490 | 55.2 | 55.4 |  |
| COc1ccc(CCNC(=O)C(=O)Nc2ccc(OC(F)(F)F)c([N+](=O)[O-])c2)cc1 [SW207010-1] | 49.5 | 0.331 | ≥ 49.5 |  |  |  |  |  |  |
| COc1ccc(CCNC(=O)C(=O)Nc2ccc(C)c(Cl)c2)cc1 [SW207020-1] | 49.5 | 0.602 | ≥ 49.5 |  |  |  |  |  |  |
| COc1ccc(C(=O)Nc2nc3ccccc3s2)cc1 [SW003087] |  |  |  | 31.3 | 100 | 2.62 | 37.4 | 11.7 |  |
| COc1ccc(CCNC(=O)C(=O)Nc2ccc(C)c(Br)c2)cc1 [SW207014-1] | 49.5 | 0.89 | ≥ 49.5 |  |  |  |  |  |  |
| COc1ccc2nc(NC(=O)Cc3ccccc3)sc2c1 [SW202749] |  |  |  | 75.2 | 234 | 60.4 | 57.6 | 70.4 |  |
| COc1cccc(C(=O)Nc2nc3ccc(OC)cc3s2)c1 [SW202747] |  |  |  | 21.2 | 29.5 | 0.306 | 20.5 | 10.3 |  |
| O=C(Nc1ccc([N+](=O)[O-])cc1F)c1sc2ccccc2c1Cl [SW202552] |  |  |  |  | 4950 | 122 |  |  |  |
| COc1ccc2nc(NS(=O)(=O)c3ccc(C(F)(F)F)cc3)sc2c1 [SW202746] |  |  |  | 42.7 |  | 46.1 | 36 | 38 |  |
| COc1ccc(CCNC(=O)C(=O)Nc2cc(C(F)(F)F)c(Br)c(C(F)(F)F)c2)cc1 [SW207012-1] | 18 | 11.8 | ≥ 49.5 |  |  |  |  |  |  |
| COc1ccc(CNC(=O)C(=O)NCc2ccc(OC)cc2)cc1 [SW207019-1] | 49.5 | ≥ 49.5 | ≥ 49.5 |  |  |  |  |  |  |
| O=C(NCCc1ccc(Br)cc1)C(=O)Nc1ccc(Cl)cc1 [SW207005-1] | 49.5 | ≥ 49.5 | ≥ 49.5 |  |  |  |  |  |  |
| Cc1cc2sc(N)nc2cc1[N+](=O)[O-] [SW202740] |  |  |  | 111 | 129 |  | 82.5 | 114 |  |
| Nc1ccc2sc(NC(=O)c3ccccc3)nc2c1 [SW202741] |  |  |  | 8.42 | 13 | 8.13 | 11.9 | 9.79 |  |
| CCOC(=O)c1c(NC(=O)c2ccccc2)sc2c1CCCC2 [SW202858-1] |  |  |  | 38.6 | 48.8 | 2.69 |  |  |  |
| COc1ccccc1CCNC(=O)C(=O)Nc1ccc(Cl)cc1 [SW207004-1] | 49.5 | ≥ 49.5 | ≥ 49.5 |  |  |  |  |  |  |
| COc1ccc(CCNC(=O)C(=O)Nc2cc(Cl)ccc2OC)cc1 [SW207011-1] | 49.5 | ≥ 49.5 | ≥ 49.5 |  |  |  |  |  |  |
| O=C(NCCc1ccc(Cl)cc1)C(=O)Nc1ccc(Cl)cc1 [SW207008-1] | 49.5 | ≥ 49.5 | ≥ 49.5 |  |  |  |  |  |  |
| O=C(Nc1ccc(NC(=O)c2sc3ccccc3c2Cl)cc1)c1ccco1 [SW163400] |  |  |  |  | 69.3 | 0.897 |  |  | 723 |
| Cc1cccc(C(=O)Nc2nc3ccccc3s2)c1 [SW202755] |  |  |  | 53.9 | 106 | 0.734 | 47.8 | 25.1 |  |
| COC(=O)c1ccc(C(=O)Nc2nc3cc(N)ccc3s2)cc1 [SW004400] |  |  |  | 77.5 | 74.3 | 297 | 54.6 | 182 |  |
